For 31 compounds, inhibition, IC50 and Activity results are on record in ChEMBL document CHEMBL5038612, “Discovery of a 2,4-diphenyl-5,6-dihydrobenzo(h)quinolin-8-amine derivative as a novel DNA intercalating topoisomerase IIα poison” (Eur J Med Chem, 2021).

In test [1] the target is T1, DNA topoisomerase 2-alpha (Homo sapiens, UniProt P11388). Kind of test: Inhibition of human topoisomerase 2 alpha mediated supercoiled pBR322 DNA relaxation at 100 uM by ethidium bromide staining based agarose gel electrophoresis relative to control.
T1 sequence (P11388 whole entry): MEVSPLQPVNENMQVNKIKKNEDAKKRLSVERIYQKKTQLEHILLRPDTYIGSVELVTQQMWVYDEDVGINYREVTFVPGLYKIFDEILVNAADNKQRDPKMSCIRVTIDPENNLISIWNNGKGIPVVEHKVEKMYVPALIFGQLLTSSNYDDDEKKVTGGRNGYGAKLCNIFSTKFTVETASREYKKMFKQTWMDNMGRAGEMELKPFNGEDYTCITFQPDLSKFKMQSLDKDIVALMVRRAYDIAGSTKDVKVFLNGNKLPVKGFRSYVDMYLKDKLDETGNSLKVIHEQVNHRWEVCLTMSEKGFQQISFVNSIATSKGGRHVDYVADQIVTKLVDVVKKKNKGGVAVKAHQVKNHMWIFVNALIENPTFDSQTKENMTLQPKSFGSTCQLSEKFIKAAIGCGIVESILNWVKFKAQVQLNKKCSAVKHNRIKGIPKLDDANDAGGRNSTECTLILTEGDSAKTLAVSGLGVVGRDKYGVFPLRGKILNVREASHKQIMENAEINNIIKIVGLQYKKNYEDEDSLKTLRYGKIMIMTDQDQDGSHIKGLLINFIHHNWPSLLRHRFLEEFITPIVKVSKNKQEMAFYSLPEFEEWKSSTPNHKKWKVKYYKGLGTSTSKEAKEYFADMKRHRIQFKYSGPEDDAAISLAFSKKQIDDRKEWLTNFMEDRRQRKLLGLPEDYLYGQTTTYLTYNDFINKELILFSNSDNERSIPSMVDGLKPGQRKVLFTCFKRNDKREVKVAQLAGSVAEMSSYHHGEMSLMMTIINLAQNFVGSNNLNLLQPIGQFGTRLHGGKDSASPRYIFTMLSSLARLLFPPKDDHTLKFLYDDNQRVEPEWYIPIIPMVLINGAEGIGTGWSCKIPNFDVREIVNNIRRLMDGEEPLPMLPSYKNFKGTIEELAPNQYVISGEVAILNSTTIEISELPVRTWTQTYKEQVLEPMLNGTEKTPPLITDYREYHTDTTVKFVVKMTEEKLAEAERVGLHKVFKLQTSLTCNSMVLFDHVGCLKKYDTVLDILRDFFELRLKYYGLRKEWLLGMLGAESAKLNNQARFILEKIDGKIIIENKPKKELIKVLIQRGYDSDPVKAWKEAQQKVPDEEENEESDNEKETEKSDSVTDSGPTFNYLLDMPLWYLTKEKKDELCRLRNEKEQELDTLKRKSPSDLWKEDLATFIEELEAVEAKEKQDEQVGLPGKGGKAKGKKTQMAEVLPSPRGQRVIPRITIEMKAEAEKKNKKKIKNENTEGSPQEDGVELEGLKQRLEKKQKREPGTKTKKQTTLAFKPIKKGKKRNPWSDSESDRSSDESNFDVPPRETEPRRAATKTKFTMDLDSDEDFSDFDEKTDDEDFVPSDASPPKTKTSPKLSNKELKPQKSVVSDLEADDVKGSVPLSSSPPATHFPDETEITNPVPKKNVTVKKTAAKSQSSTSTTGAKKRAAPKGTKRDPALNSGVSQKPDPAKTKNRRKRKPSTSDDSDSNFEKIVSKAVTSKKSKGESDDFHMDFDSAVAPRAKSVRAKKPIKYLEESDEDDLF
In a further test the test system is HCT-15. Nature of the test: Antiproliferative activity against human HCT-15 cells assessed as reduction in cell viability after 48 hrs by Ez-cytoX based microplate reader method. The test is classed as functional. As to conditions: HCT-15, 48 h.
The test system of another test is HeLa. Kind of test: Antiproliferative activity against human HeLa cells assessed as reduction in cell viability after 48 hrs by Ez-cytoX based microplate reader method. In kind it is functional.
In test [2] the target is DNA topoisomerase 2-beta (Homo sapiens) (UniProt Q02880). Nature of the test: Inhibition of human topoisomerase 2 beta mediated supercoiled pBR322 DNA relaxation at 100 uM by ethidium bromide staining based agarose gel electrophoresis relative to control.
Chain of DNA topoisomerase 2-beta (Homo sapiens) (Q02880 whole entry): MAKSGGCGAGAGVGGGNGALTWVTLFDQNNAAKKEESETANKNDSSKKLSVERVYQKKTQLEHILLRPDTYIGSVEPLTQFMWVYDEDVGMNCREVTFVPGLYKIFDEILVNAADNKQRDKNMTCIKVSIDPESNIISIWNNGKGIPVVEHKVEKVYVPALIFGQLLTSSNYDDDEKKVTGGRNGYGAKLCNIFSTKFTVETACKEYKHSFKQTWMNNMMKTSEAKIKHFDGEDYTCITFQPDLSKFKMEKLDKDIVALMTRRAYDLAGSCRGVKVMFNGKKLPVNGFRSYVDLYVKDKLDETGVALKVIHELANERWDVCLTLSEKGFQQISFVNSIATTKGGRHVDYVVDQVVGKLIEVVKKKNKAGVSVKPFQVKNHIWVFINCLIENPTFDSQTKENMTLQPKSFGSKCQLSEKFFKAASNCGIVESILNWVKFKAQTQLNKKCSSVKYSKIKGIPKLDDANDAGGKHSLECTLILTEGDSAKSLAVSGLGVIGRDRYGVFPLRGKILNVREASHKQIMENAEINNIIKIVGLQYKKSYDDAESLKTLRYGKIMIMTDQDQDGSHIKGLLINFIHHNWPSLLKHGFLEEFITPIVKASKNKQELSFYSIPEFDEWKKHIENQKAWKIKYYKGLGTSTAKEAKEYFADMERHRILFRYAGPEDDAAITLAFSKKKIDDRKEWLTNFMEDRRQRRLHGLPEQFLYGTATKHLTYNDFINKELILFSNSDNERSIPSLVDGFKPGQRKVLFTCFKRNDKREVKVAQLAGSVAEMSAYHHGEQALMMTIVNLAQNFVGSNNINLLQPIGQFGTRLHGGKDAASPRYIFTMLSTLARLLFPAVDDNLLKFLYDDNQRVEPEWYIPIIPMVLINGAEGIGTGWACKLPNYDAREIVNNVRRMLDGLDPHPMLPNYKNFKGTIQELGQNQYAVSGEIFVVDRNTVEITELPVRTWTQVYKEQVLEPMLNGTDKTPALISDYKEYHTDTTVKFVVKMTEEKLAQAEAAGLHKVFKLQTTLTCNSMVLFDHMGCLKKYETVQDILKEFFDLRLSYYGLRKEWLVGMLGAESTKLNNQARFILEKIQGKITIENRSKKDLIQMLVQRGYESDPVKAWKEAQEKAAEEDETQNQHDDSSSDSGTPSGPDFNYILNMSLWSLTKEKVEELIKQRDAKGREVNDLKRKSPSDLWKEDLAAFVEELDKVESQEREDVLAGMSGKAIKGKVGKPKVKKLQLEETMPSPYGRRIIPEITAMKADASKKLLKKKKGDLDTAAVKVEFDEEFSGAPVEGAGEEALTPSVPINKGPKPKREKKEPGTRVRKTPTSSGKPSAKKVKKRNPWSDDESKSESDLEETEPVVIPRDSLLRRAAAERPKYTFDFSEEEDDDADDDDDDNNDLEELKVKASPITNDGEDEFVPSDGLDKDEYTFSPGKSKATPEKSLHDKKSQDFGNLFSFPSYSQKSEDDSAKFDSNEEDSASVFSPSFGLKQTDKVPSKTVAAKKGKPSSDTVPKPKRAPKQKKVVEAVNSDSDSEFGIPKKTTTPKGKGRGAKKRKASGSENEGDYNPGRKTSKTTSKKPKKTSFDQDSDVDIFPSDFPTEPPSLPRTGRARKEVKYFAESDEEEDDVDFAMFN
For test [3], the target named is T1, DNA topoisomerase 2-alpha. Nature of the test: Inhibition of human topoisomerase 2 alpha mediated supercoiled pBR322 DNA relaxation at 1 uM by ethidium bromide staining based agarose gel electrophoresis relative to control.
In test [4] the target is T1, DNA topoisomerase 2-alpha. Nature of the test: Inhibition of human topoisomerase 2 alpha mediated supercoiled pBR322 DNA relaxation at 10 uM by ethidium bromide staining based agarose gel electrophoresis relative to control.
The next test relates to LNCaP. Nature of the test: Antiproliferative activity against human LNCaP-LN3 cells assessed as reduction in cell viability after 48 hrs by Ez-cytoX based microplate reader method. In kind it is functional.
The test system of the next test is LNCaP-Clone-FGC. Kind of test: Antiproliferative activity against human LNCaP-Clone-FGC cells assessed as reduction in cell viability after 48 hrs by Ez-cytoX based microplate reader method. The test is classed as functional.
For another test, the system named is BT-474. Nature of the test: Antiproliferative activity against human BT-474 cells assessed as reduction in cell viability after 48 hrs by Ez-cytoX based microplate reader method. In kind it is functional. Conditions: BT-474, 48 h.
Test [5] has as its system Calf thymus DNA. Kind of test: Binding affinity to calf thymus DNA assessed as DNA intercalation at 100 uM by fluorescence based EtBr-displacement assay relative to control. In kind it is nucleic-acid assay. Conditions: Bos taurus.
Test [6] has as its target T1, DNA topoisomerase 2-alpha. Nature of the test: Inhibition of human topoisomerase 2 alpha mediated supercoiled pBR322 DNA relaxation at 5 uM by ethidium bromide staining based agarose gel electrophoresis relative to control.
Test [7] concerns Calf thymus DNA. Nature of the test: Binding affinity to calf thymus DNA assessed as DNA intercalation at 10 to 100 uM by fluorescence based EtBr-displacement assay. In kind it is nucleic-acid assay. Conditions: Bos taurus; dose 10-100 µM.
The test system of another test is DU-145. Kind of test: Antiproliferative activity against human DU-145 cells assessed as reduction in cell viability after 48 hrs by Ez-cytoX based microplate reader method. The test is classed as functional. Conditions: DU-145, 48 h.
Test [8] addresses DNA topoisomerase 2-beta (Homo sapiens) (UniProt Q02880). Kind of test: Inhibition of human topoisomerase 2 beta mediated supercoiled pBR322 DNA relaxation at 2 uM by ethidium bromide staining based agarose gel electrophoresis relative to control.
For test [9], the target named is T1, DNA topoisomerase 2-alpha. Nature of the test: Inhibition of human topoisomerase 2 alpha mediated supercoiled pBR322 DNA relaxation by ethidium bromide staining based agarose gel electrophoresis.
The target in test [10] is T1, DNA topoisomerase 2-alpha. Nature of the test: Inhibition of human topoisomerase 2 alpha mediated supercoiled pBR322 DNA relaxation at 2 uM by ethidium bromide staining based agarose gel electrophoresis relative to control.
Another test has as its system SK-OV-3. Nature of the test: Antiproliferative activity against human SK-OV-3 cells assessed as reduction in cell viability after 48 hrs by Ez-cytoX based microplate reader method. In kind it is functional. As to conditions: SK-OV-3, 48 h.
The target in test [11] is DNA topoisomerase 2-beta (Homo sapiens) (UniProt Q02880). Kind of test: Inhibition of human topoisomerase 2 beta mediated supercoiled pBR322 DNA relaxation at 5 uM by ethidium bromide staining based agarose gel electrophoresis relative to control.

The term inhibition denotes the share of the control response that was lost under treatment. As usually defined, the IC50 is the midpoint of a concentration-inhibition curve.

Structures are written as SMILES. Counter-ions that a name gives are not always drawn. The source made the active and inactive calls. No cut-off for these calls is given here.

Take `Nc1ccc2c(c1)CCc1c(-c3ccc(OC(F)(F)F)cc3)cc(-c3ccccc3O)nc1-2`: the inhibition in [1] is 30.2%. Besides, the IC50 in the test with HCT-15 and in the test with HeLa was more than 50 µM in each case.
The compound `Nc1ccc2c(c1)CCc1c(-c3ccc(OC(F)(F)F)cc3)cc(-c3ccc(O)cc3)nc1-2` showed an inhibition in test [1] of 36.5%. For the same compound, the IC50 in the test with HCT-15 is 2.02 µM; in the test on HeLa, 5.86 µM.
In the case of `Nc1ccc2c(c1)CCc1c(-c3ccccc3OC(F)(F)F)cc(-c3cccc(O)c3)nc1-2`, in [1], the inhibition was 62.8%. In addition, the concentration for half-maximal inhibition (IC50) amounted to 5.58 µM with HCT-15 and 3.41 µM in the test on HeLa.
The corresponding values for `Nc1ccc2c(c1)CCc1c(-c3ccc(C(F)(F)F)cc3)cc(-c3cccc(O)c3)nc1-2` are 72.4%, 2.34 µM and 4.98 µM.
The corresponding values for `Nc1ccc2c(c1)CCc1c(-c3ccccc3C(F)(F)F)cc(-c3cccc(O)c3)nc1-2` are 87.4%, 2.93 µM and 5.4 µM.
The corresponding values for `Nc1ccc2c(c1)CCc1c(-c3ccccc3)cc(-c3ccccc3O)nc1-2` are 0%, 3.47 µM and 33.2 µM.
Regarding `Nc1ccc2c(c1)CCc1c(-c3ccc(F)cc3)cc(-c3cccc(O)c3)nc1-2`, in test [1], the inhibition is 3.9%. Also, the IC50 came to 2.87 µM in the test with HCT-15 and 5.18 µM in the test on HeLa.
Taken in the same sequence, the figures for `Nc1ccc2c(c1)CCc1c(-c3ccccc3OC(F)(F)F)cc(-c3ccccc3O)nc1-2` were 70%, 2.86 µM and 5.46 µM.
Taken in the same sequence, the figures for `Nc1ccc2c(c1)CCc1c(-c3ccccc3F)cc(-c3ccccc3O)nc1-2` were 1.2%, 1.11 µM and 22.8 µM.
Taken in the same sequence, the figures for `Nc1ccc2c(c1)CCc1c(-c3ccc(F)cc3)cc(-c3ccc(O)cc3)nc1-2` were 77.6%, 2.96 µM and 5.64 µM.
In turn, `Nc1ccc2c(c1)CCc1c(-c3ccc(C(F)(F)F)cc3)cc(-c3ccccc3O)nc1-2` registered an inhibition in test [1] of 28.8%. Moreover, the 50% inhibitory concentration (IC50) with HCT-15 and with HeLa was more than 50 µM throughout.
In [1], `Nc1ccc2c(c1)CCc1c(-c3cccc(F)c3)cc(-c3ccc(O)cc3)nc1-2` displayed an inhibition of 10.5%. In addition, the IC50 is 1.85 µM in the test with HCT-15 and 5.05 µM with HeLa.
For the compound `Nc1ccc2c(c1)CCc1c(-c3ccccc3F)cc(-c3cccc(O)c3)nc1-2`, the inhibition in test [1] worked out at 4.3%. Further, the results for the 50% inhibitory concentration (IC50) in the test with HCT-15 and with HeLa were 1.92 µM and 5.38 µM, respectively.
Turning to `COc1cc([C@@H]2c3cc4c(cc3[C@@H](O[C@@H]3O[C@@H]5CO[C@@H](C)O[C@H]5[C@H](O)[C@H]3O)[C@H]3COC(=O)[C@H]23)OCO4)cc(OC)c1O` [ETOPOSIDE], the IC50 in the test on HeLa worked out at 8.3 µM.
As to `Nc1ccc2c(c1)CCc1c(-c3ccccc3C(F)(F)F)cc(-c3ccccc3O)nc1-2`, the inhibition in test [1] turned out to be 29.3%. The 50% inhibitory concentration (IC50) with HCT-15 is 1.23 µM; in the test with HeLa, 6.58 µM.
In the case of `Nc1ccc2c(c1)CCc1c(-c3cccc(F)c3)cc(-c3cccc(O)c3)nc1-2`, the inhibition in [1] amounted to 3.4%. Moreover, the values for the concentration for half-maximal inhibition (IC50) in the test on HCT-15 and with HeLa were 3.91 µM and 4.19 µM, respectively.
As to `Nc1ccc2c(c1)CCc1c(-c3cccc(OC(F)(F)F)c3)cc(-c3cccc(O)c3)nc1-2`, the inhibition in [1] was 60%. Also, the concentration for half-maximal inhibition (IC50) in the test with HCT-15 came out at 1.84 µM; with HeLa, 4.62 µM.
`Nc1ccc2c(c1)CCc1c(-c3ccccc3)cc(-c3ccc(O)cc3)nc1-2` showed an inhibition in test [1] of 21.7%. Besides, the values for the IC50 in the test on HCT-15 and in the test with HeLa were 3.82 µM and 6.55 µM, respectively.
With `Nc1ccc2c(c1)CCc1c(-c3ccccc3F)cc(-c3ccc(O)cc3)nc1-2`, in [1], the inhibition came out at 25.3%. For the same compound, the IC50 stood at 1.52 µM with HCT-15 and 3.26 µM in the test on HeLa.
The corresponding values for `Nc1ccc2c(c1)CCc1c(-c3ccc(F)cc3)cc(-c3ccccc3O)nc1-2` are 1.2%, more than 50 µM and more than 50 µM.
Taken in the same sequence, the figures for `Nc1ccc2c(c1)CCc1c(-c3cccc(F)c3)cc(-c3ccccc3O)nc1-2` were 1.3%, 2.26 µM and 8.16 µM.
`Nc1ccc2c(c1)CCc1c(-c3cccc(C(F)(F)F)c3)cc(-c3cccc(O)c3)nc1-2`: in test [1], the inhibition was found to be 62.9%. Moreover, the half-inhibitory concentration (IC50) in the test with HCT-15 worked out at 2.43 µM; with HeLa, 4.49 µM.
In the case of `Nc1ccc2c(c1)CCc1c(-c3ccccc3C(F)(F)F)cc(-c3ccc(O)cc3)nc1-2`, the inhibition in test [1] was 81.9%; in test [2], 82.6%; in test [3], 22.3%; in test [4] it was 66.2%; in [6] it was 57%; in test [8], 19.6%. In addition, the inhibition in [10] came out at 34.4%; in test [11] it was 21.7%. Also, the IC50 worked out at 5.58 µM in the test on LNCaP; 7.18 µM in the test on LNCaP-Clone-FGC; 5.13 µM in the test with BT-474; 1.99 µM in the test with HCT-15; 1.56 µM in the test with DU-145; 5.07 µM in the test with HeLa. Also, the IC50 in test [9] was 3.58 µM; in the test with SK-OV-3 it was 1.67 µM. In addition, the outcome with Calf thymus DNA [5] was inactive. The Activity entry in the test with Calf thymus DNA [7] was “Dose-Dependent Effect”.
On to `Nc1ccc2c(c1)CCc1c(-c3ccccc3)cc(-c3cccc(O)c3)nc1-2`, for which, in test [1], the inhibition was found to be 1.5%. The half-inhibitory concentration (IC50) in the test with HCT-15 is 3.3 µM; with HeLa it was 4.05 µM.
Taken in the same sequence, the figures for `Nc1ccc2c(c1)CCc1c(-c3cccc(C(F)(F)F)c3)cc(-c3ccc(O)cc3)nc1-2` were 75%, 2 µM and 5.14 µM.
With `COc1cccc2c1C(=O)c1c(O)c3c(c(O)c1C2=O)C[C@@](O)(C(=O)CO)C[C@@H]3O[C@H]1C[C@H](N)[C@H](O)[C@H](C)O1` [DOXORUBICIN HYDROCHLORIDE], the IC50 in the test with HCT-15 came out at 1.89 µM.
In test [1], `Nc1ccc2c(c1)CCc1c(-c3cccc(C(F)(F)F)c3)cc(-c3ccccc3O)nc1-2` yielded an inhibition of 25.7%. Moreover, the results for the IC50 in the test with HCT-15 and with HeLa were 2.29 µM and 7.61 µM, respectively.
As to `Nc1ccc2c(c1)CCc1c(-c3ccccc3OC(F)(F)F)cc(-c3ccc(O)cc3)nc1-2`, in [1], the inhibition was found to be 72.5%. Also, the concentration for half-maximal inhibition (IC50) in the test on HCT-15 is 2.96 µM; in the test with HeLa, 2.87 µM.
Taken in the same sequence, the figures for `Nc1ccc2c(c1)CCc1c(-c3ccc(C(F)(F)F)cc3)cc(-c3ccc(O)cc3)nc1-2` were 77.8%, 2.73 µM and 5.54 µM.
The corresponding values for `Nc1ccc2c(c1)CCc1c(-c3ccc(OC(F)(F)F)cc3)cc(-c3cccc(O)c3)nc1-2` are 49%, 2.71 µM and 5.59 µM.
Regarding `Nc1ccc2c(c1)CCc1c(-c3cccc(OC(F)(F)F)c3)cc(-c3ccc(O)cc3)nc1-2`, in [1], the inhibition turned out to be 36.5%. Moreover, the 50% inhibitory concentration (IC50) with HCT-15 worked out at 1.79 µM; in the test with HeLa, 3.78 µM.
